Measured values reported in PMC2703631, “Identification of non-muscle myosin heavy chain as a substrate for Cdk5 and tool for drug screening” (Journal of Biomedical Science, 2009).

Experiments:
[1] = tested on: human neuroblastoma SH-SY5Y cells; assay: pSerCdk substrate (NMHC-B) phosphorylation by Western blot in SH-SY5Y cells; assay type: cell-based; conditions: undifferentiated and RA-differentiated SH-SY5Y cells, 10 μM, 4 hours
Experimental: SH-SY5Y cells were grown in medium with equal amount of Minimum Essential Medium (MEM, InVitrogen, Sweden) and Nutrient Mixture Ham's F-12 (InVitrogen, Sweden), supplemented with 1% non-essential amino acids and with heat-inactivated FCS. Cells were plated at a density of 4.0 × 10^4 cells/cm^2 in 6-well culture dishes using cell medium with 10% FCS. For differentiation, the cells were treated 6 days with 10 μM all-trans-retinoic acid (RA, Sigma, Sweden) in the medium containing 1% FCS. In some experiments the cells were left undifferentiated and these cells were cultured in medium containing 10% FCS. […]
HEK293 cells were lysed in buffer containing 10 mM Tris-HCl pH 7.2, 150 mM NaCl, 2 mM EDTA, 50 mM NaF, 1 mM Na3O4V, 0.5% NP-40 and 1 complete protease inhibitor cocktail tablet (Roche Diagnostics Scandinavia AB, Sweden)/10 ml buffer. […] The protein content in the supernatants was measured using BCA Protein Assay kit (Pierce Biotechnology, Rockford, IL, USA). […] Average density of the bands was measured in Fluor-S™MultiImager (Bio-Rad Laboratories AB, Sweden) by using Quantity One software. The inhibition curves were analysed by non-linear regression using Graph Pad Prism.
We also investigated NMHC-B phosphorylation by Cdk5 in human neuroblastoma SH-SY5Y cells. […] Verification that the 200 kDa pSerCdk band detected in SH-SY5Y cells was in fact NMHC-B was done by immunoprecipitation.

[2] = target: recombinant human Cdk5/p25 (Homo sapiens, UniProt Q00535); assay: Scintillation Proximity Assay (SPA), peptide substrate phosphorylation; assay type: biochemical; conditions: recombinant human Cdk5/p25 3.3 nM, 2 μM ATP, biotinylated peptide substrate; read-out: IC50, inhibition of peptide substrate phosphorylation in SPA assay
Experimental: (§1) The inhibition curves were analysed by non-linear regression using Graph Pad Prism.
This biochemical assay measures inhibition of the recombinant human Cdk5/p25 protein kinase by different compounds with a synthetic peptide as a substrate.

[3] = tested on: Cdk5/p25 transfected HEK293 cells; assay: NMHC-B (pSerCdk substrate) phosphorylation by Western blot in Cdk5/p25 transfected HEK293 cells; assay type: cell-based, human; conditions: for IC50: Homo sapiens, 4 hours treatment, Western blot, read-out: IC50, inhibition of pSerCdk substrate (NMHC-B) phosphorylation
Experimental: as §1

[4] = Solubility (remark in discussion); assay type: physicochemical; conditions: stated as likely cause of precipitation at higher concentrations

Sequence of recombinant human Cdk5/p25 (Q00535 whole entry): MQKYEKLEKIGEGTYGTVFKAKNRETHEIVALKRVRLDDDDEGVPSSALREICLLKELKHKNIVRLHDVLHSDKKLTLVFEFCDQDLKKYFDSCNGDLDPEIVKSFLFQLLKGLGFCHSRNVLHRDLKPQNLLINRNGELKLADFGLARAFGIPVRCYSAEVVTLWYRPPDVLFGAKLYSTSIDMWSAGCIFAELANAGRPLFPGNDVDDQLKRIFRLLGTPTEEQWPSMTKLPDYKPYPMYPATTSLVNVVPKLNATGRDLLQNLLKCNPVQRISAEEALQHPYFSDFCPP
Sequence of recombinant human Cdk5/p25 (Q15078 99-307 partner limits assumed): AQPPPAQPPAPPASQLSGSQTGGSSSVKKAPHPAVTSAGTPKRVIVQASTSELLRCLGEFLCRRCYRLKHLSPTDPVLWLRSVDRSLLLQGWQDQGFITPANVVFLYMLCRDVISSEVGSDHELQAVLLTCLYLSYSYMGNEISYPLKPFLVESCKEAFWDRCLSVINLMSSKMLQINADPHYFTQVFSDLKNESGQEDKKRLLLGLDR

Compound | phosphorylation of 200 kDa pSerCdk substrate band [1] | IC50 [2] | IC50 [3] | solubility [4] | inhibition of pSerCdk substrate phosphorylation ([3]; data not shown)
CC[C@H](CO)Nc1nc(NCc2ccccc2)c2ncn(C(C)C)c2n1 [Roscovitine] | completely inhibited | – | – | – | –
NS(=O)(=O)c1cc(-c2nc3ccc(Cl)cc3s2)cs1 [AZ compound, 4-(6-chlorobenzothiazol-2-yl)thiophene-2-sulfonamide] | – | 355 nM | 4360 nM | poor solubility | –
CCn1c(=O)ccc2cnc(Nc3ccc(F)cc3)nc21 [WL compound, 7-ethyl-4-[(4-fluorophenyl)amino]-3,5,7-triaza bicyclo [4.4.0.] deca-1,3,5,9-tetraen-8-one] | – | 45 nM | 2550 nM | – | –
Cc1c(C(=O)c2ccc(Cl)cc2)cc(C(C)(C)C)c(O)c1C(=O)O [5-(4-chlorobenzoyl)-2-hydroxy-6-methyl-3-tert-butyl-benzoic acid] | – | – | – | – | did not show inhibition
